Numbered stars: 1 amine (or outer) side, 2 acyl side, 3 side chain; on linkers, the order of the positions; unused ones are H or OH. Bridge positions count the residues as written; N and C are the ends. Ends that are not written are not given here. Peptide text beside a SMILES is read from it. Suc = O=C(CCC(=O)[*:2])[*:1]
Target: SARS-CoV-2 spike protein RBD (Severe acute respiratory syndrome coronavirus 2, UniProt P0DTC2)
Assay: biochemical
Assay type: binding
Conditions: for kon: read-out: Ka; for Binding (Yes/No): pH 7.4

Compound | kon | other results
CSCC[C@@H]1NC(=O)[C@H](CC(C)C)NC(=O)[C@H](CCCCN)NC(=O)[C@H](CCC(=O)O)NC(=O)[C@H](Cc2ccccc2)NC(=O)[C@H](CC(C)C)NC(=O)[C@H](CC(=O)O)NC(=O)[C@H](CCC(=O)O)NC(=O)[C@H](C)NC(=O)[C@H](CCC(=O)O)NC(=O)[C@H](Cc2c[nH]cn2)NC(=O)[C@H](CC(N)=O)NC(=O)[C@H](Cc2ccccc2)NC(=O)[C@H](CCCCN)NC1=O [Peptide 3] (cyclo(AEDLFEKLMKFNHE)) | 15.1 ± 3.8 M⁻¹ s⁻¹ | –
CSCC[C@H](NC(=O)[C@H](CC(C)C)NC(=O)[C@H](CCCCN)NC(=O)[C@H](CCC(=O)O)NC(=O)[C@H](Cc1ccccc1)NC(=O)[C@H](CC(C)C)NC(=O)[C@H](CC(=O)O)NC(=O)[C@H](CCC(=O)O)NC(=O)[C@H](C)NC(=O)[C@H](CCC(=O)O)NC(=O)[C@H](Cc1c[nH]cn1)NC(=O)[C@H](CC(N)=O)NC(=O)[C@H](Cc1ccccc1)NC(=O)[C@H](CCCCN)NC(=O)CCC(=O)O)C(N)=O [Peptide 4] (Suc-KFNHEAEDLFEKLM-NH2) | 13.9 ± 3.6 M⁻¹ s⁻¹ | –
CSCC[C@@H]1NC(=O)[C@H](CC(C)C)NC(=O)[C@H](CCCCN)NC(=O)[C@H](CCC(=O)O)NC(=O)[C@H](Cc2ccccc2)NC(=O)[C@H](CC(C)C)NC(=O)[C@H](CC(=O)O)NC(=O)[C@H](CCC(=O)O)NC(=O)[C@H](C)NC(=O)[C@H](CCC(=O)O)NC(=O)[C@H](Cc2c[nH]cn2)NC(=O)[C@H](CC(N)=O)NC(=O)[C@H](Cc2ccccc2)NC(=O)[C@H](CCCCN)NC(=O)[C@@H](N)CSSC[C@@H](C(N)=O)NC1=O [Peptide 6] (H-CKFNHEAEDLFEKLMC-NH2; disulfide 1-16) | 6.84 ± 2.46 M⁻¹ s⁻¹ | –
CSCC[C@H](NC(=O)[C@H](CC(=O)O)NC(=O)[C@H](CCC(=O)O)NC(=O)[C@H](Cc1ccccc1)NC(=O)[C@H](CC(C)C)NC(=O)[C@H](CCC(=O)O)NC(=O)[C@H](CCC(=O)O)NC(=O)[C@H](Cc1ccccc1)NC(=O)[C@H](CC(C)C)NC(=O)[C@H](CCCCN)NC(=O)[C@H](CCC(=O)O)NC(=O)[C@H](Cc1ccccc1)NC(=O)[C@H](CC(C)C)NC(=O)[C@H](CC(=O)O)NC(=O)[C@H](CCC(=O)O)NC(=O)[C@H](C)NC(=O)[C@H](CCC(=O)O)NC(=O)[C@H](Cc1c[nH]cn1)NC(=O)[C@H](CC(N)=O)NC(=O)[C@H](Cc1ccccc1)NC(=O)[C@H](CCCCN)NC(=O)CCC(=O)O)C(N)=O [Peptide 7] (Suc-KFNHEAEDLFEKLFEELFEDM-NH2) | 4.29 ± 0.52 M⁻¹ s⁻¹ | Kd: (2.09 ± 0.39) × 10^−2 M^−1; Binding (Yes/No): Yes
CC(C)C[C@H](NC(=O)CCC(=O)O)C(=O)N[C@@H](CC(C)C)C(=O)N[C@@H](CCC(=O)O)C(=O)N[C@@H](CCCCN)C(=O)N[C@@H](CC(C)C)C(=O)N[C@@H](CC(C)C)C(=O)N[C@@H](CCC(=O)O)C(=O)N[C@@H](Cc1c[nH]c2ccccc12)C(=O)N[C@@H](CC(C)C)C(=O)N[C@@H](CCC(=O)O)C(N)=O [Peptide 9] (Suc-LLEKLLEWLE-NH2) | 5.83 ± 2.92 M⁻¹ s⁻¹ | Kd: (1.39 ± 0.16) × 10^−2 M^−1; Binding (Yes/No): Yes
Ac-KFNHEAEDLFEKLM [Peptide 5] | 0.64 ± 0.09 M⁻¹ s⁻¹ | –
GLFKEALEELWEA-NH2 [Peptide 8] | 5.39 ± 1.31 M⁻¹ s⁻¹ | –
KFNDEAEDLFKLFEELFEDM-NH2 [Peptide 10] | 6.81 ± 2.41 M⁻¹ s⁻¹ | –
KFNHEAEDLFEKLM [Peptide 1] | 4.62 ± 0.45 M⁻¹ s⁻¹ | –
KFNHEAEDLFEKLM-NH2 [Peptide 2] | 1.15 ± 0.08 M⁻¹ s⁻¹ | –
MIEEQAKFLDKFNHEAEDLFK-NH2 [Peptide 11] | – | binding to the spike protein RBD at higher concentrations: bound

Reference: paper PMC9000588 (Molecules, 2022)
